The source of these data is US20240335541A1, “NANOMATERIALS COMPRISING DIAMINES” (Beam Therapeutics Inc., priority 2021, published 2024).

Holding throughout (format): physicochemical
The nature of series [1]: LNP encapsulation efficiency, unlysed vs lysed LNPs, Qubit kit (Example 1 LNPs). Conditions: LNPs prepared according to Example 1; total lipid to NA mass ratio 11.7. How it is done:
Concentration of NA was determined by Qubit microRNA kit (for siRNA) or HS RNA kit (for mRNA) per manufacturer's instructions. Encapsulation efficiency was determined by measuring nucleic acid concentration in unlysed and lysed LNPs. Encapsulation efficiency was determined by measuring unlysed and lysed LNPs.

A short description of series [2]: LNP hydrodynamic diameter and polydispersity by DLS (Example 1 LNPs). The conditions noted are these: LNPs prepared according to Example 1, total lipid to NA mass ratio 11.7. Here is the method: LNPs were prepared with a total lipid to NA mass ratio of 11.7. LNPs were formed by microfluidic mixing of the lipid and NA solutions using a Precision Nanosystems NanoAssemblr Spark or Benchtop series Instruments, according to the manufacturers protocol. A ratio of aqueous to organic solvent of approximately 2:1 or 3:1 was maintained during mixing using differential flow rates. After mixing, LNPs were collected, diluted in PBS (approximately 1:1 v/v). Further buffer exchange was conducted using dialysis in PBS at 4° C. for 4 to 24 hours against a 20 kDa filter. After this initial dialysis, each individual LNP preparation was characterized via dynamic light scattering (DLS) to measure the size (e.g., diameter) and polydispersity. In addition, pKa of a subpopulation of LNPs was measured via a 2-(p-toluidino)-6-napthalene sulfonic acid (TNS) assay. LNPs falling within specific diameter and polydispersity ranges are pooled, and further dialyzed against phosphate buffer saline (PBS) at 4° C. for 1 to 4 hours against a 100 kDa dialysis cassette. After the second dialysis, LNPs were sterile filtered using […] filter and stored at 4° C. for further use.
DLS-LNP hydrodynamic diameter and polydispersity index (PDI) were measured using high throughput dynamic light scattering (DLS) (DynaPro plate reader II, Wyatt). LNPs were diluted 1×PBS to an appropriate concentration and analyzed.
Lipid nanoparticle components were dissolved in 100% ethanol at specified lipid component molar ratios. Nucleic acid (NA) cargo was dissolved in 10 mM citrate, 100 mM NaCl, pH 4.0, resulting in a concentration of NA cargo of approximately 0.22 mg/mL. In some embodiments, NA cargos included both a functional NA and a reporter DNA barcode mixed at mass ratios of 1:10 to 10:1 functional NA to barcode. LNPs were formulated with a total lipid to NA mass ratio of 11.7. LNPs were formed by microfluidic mixing of the lipid and NA solutions using a Precision Nanosystems NanoAssemblr Spark or Benchtop series Instruments, according to the manufacturer's protocol. A 2:1 or 3:1 ratio of aqueous to organic solvent was maintained during mixing using differential flow rates. After mixing, LNPs were collected, diluted in PBS (approximately 1:1 v/v), and further buffer exchange was conducted using dialysis in PBS at 4° C. for 8 to 24 hours against a 20 kDa filter. After this initial dialysis, each individual LNP formulation was characterized via DLS to measure the size and polydispersity, and the pKa of a subpopulation of LNPs is measured via TNS assay. After dialysis, LNPs were sterile filtered using 0.22 micron sterile filter and stored at 4° C. for further use.
LNP hydrodynamic diameter and polydispersity index (PDI) were measured using high throughput dynamic light scattering (DLS) (DynaPro plate reader II, Wyatt). LNPs were diluted 1×PBS to an appropriate concentration and analyzed.

A short description of series [3]: LNP hydrodynamic diameter and PDI by DLS (Example 16 LNPs, Stunner). The conditions noted are these: Example 16 LNPs: 47.5% Ionizable Lipid: 40% cholesterol: 2.5% PEG-2000 DMG: 10% DPSC, N/P 4-8. How it is done:
(§1) LNPs were prepared with 47.5% Ionizable Lipid (e.g., a compound provided herein): 40% cholesterol: 2.5% PEG-2000 DMG: 10% DPSC and an N/P ratio range of 4-8. LNPs were formed by microfluidic mixing of the lipid and NA solutions using a Precision Nanosystems NanoAssemblr Spark or Benchtop series Instruments, according to the manufacturer's protocol. A ratio of aqueous to organic solvent of approximately 2:1 or 3:1 was maintained during mixing using differential flow rates. After mixing, LNPs were collected, diluted in phosphate buffer saline (PBS) or Tris-buffered saline (TBS) (approximately 1:1 v/v). Further buffer exchange was conducted using dialysis in PBS or TBS at 4° C. for 4 to 24 hours against a 20 kDa filter. After this initial dialysis, each individual LNP preparation was characterized via dynamic light scattering (DLS) to measure the size (e.g., diameter) and polydispersity. LNPs falling within specific diameter and polydispersity ranges were pooled, and further dialyzed against PBS or TBS at 4° C. for 1 to 4 hours against a 100 kDa dialysis cassette. After the second dialysis, LNPs were sterile filtered using 0.22 μm filter and stored at 4° C. for further use.
LNP hydrodynamic diameter and polydispersity index (PDI) were measured using high throughput dynamic light scattering (DLS) (Stunner, Unchained Labs). LNPs were diluted 1×TBS or PBS to an appropriate concentration and analyzed.

A short description of series [4]: LNP encapsulation efficiency by Ribogreen assay (Example 16 LNPs). The conditions noted are these: Example 16 LNPs: 47.5% Ionizable Lipid: 40% cholesterol: 2.5% PEG-2000 DMG: 10% DPSC, N/P 4-8. How it is done: as §1
RNA concentration and encapsulation efficiency were determined by Ribogreen assay (BioTek Synergy LX plate reader).

`CC/C=C\CCCCOC(CCC(=O)OCCCCCCCN(CCO)CCN(CCCCCCCOC(=O)CCC(OCCCC/C=C\CC)OCCCC/C=C\CC)CCCCCCCOC(=O)CCC(OCCCC/C=C\CC)OCCCC/C=C\CC)OCCCC/C=C\CC` [Example 7-11]: in series [1], the “Mean Encapsulation Efficiency” value was 96.4%. Moreover, in series [2], the “Mean Diameter” value came to 79.8 nm and the “Mean PDI” value is recorded as 9.4%.
Regarding `CC/C=C\CCCCOC(CCC(=O)OCCCCCCN(CCO)CCCN(CCCCCCCCCOC(=O)C(CCCC)CCCCCC)CCCCCCCCCOC(=O)C(CCCC)CCCCCC)OCCCC/C=C\CC` (stereo not drawn) [Example 7-8], the “Mean Diameter” value stood at 91.0 nm in series [3] and 165.2 nm in series [2]. Besides, the figures for the “Mean PDI” value in series [3] and in series [2] were 0.11 and 19.3%, respectively. Moreover, the “Mean Encapsulation Efficiency” value was determined as 61.1% in series [4] and 85.4% in series [1].
Consider `CC/C=C\CCCCOC(CCC(=O)OCCCCCCCN(CCCCCCCOC(=O)CCC(OCCCC/C=C\CC)OCCCC/C=C\CC)CCN(CCO)CCCCCCCC(=O)OCCCCCCCCC)OCCCC/C=C\CC` [Example 7-13, ((2-((2-hydroxyethyl)(8-(nonyloxy)-8-oxooctyl)amino)ethyl)azanediyl)bis(heptane-7,1-diyl) bis(4,4-bis(((Z)-oct-5-en-1-yl)oxy)butanoate)], for which the “Mean Diameter” value in series [3] was 86.2 nm; in series [2] it was 93.7 nm. In addition, the entries for the “Mean PDI” value in series [3] and in series [2] were 0.10 and 14.3%, respectively. Moreover, the “Mean Encapsulation Efficiency” value came to 75.4% in series [4] and 95.9% in series [1].
Take `CC/C=C\CCCCOC(CCC(=O)OCCCCCCCN(CCCCCCCOC(=O)CCC(OCCCC/C=C\CC)OCCCC/C=C\CC)CCN(CCCO)CCCCCCCC(=O)OCCCCCCCCC)OCCCC/C=C\CC` [Example 7-19, ((2-((3-hydroxypropyl)(8-(nonyloxy)-8-oxooctyl)amino)ethyl)azanediyl)bis(heptane-7,1-diyl) bis(4,4-bis(((Z)-oct-5-en-1-yl)oxy)butanoate)]: the entries for the “Mean Diameter” value in series [3] and in series [2] were 90.6 nm and 100.8 nm, respectively. For the same compound, the results for the “Mean PDI” value in series [3] and in series [2] were 0.13 and 13.2%, respectively. Also, the “Mean Encapsulation Efficiency” value in series [4] is 70.0%; in series [1], 92.9%.
In the case of `CC/C=C\CCCCOC(CCC(=O)OCCCCCCCN(CCCO)CCN(CCCCCCCOC(=O)CCC(OCCCC/C=C\CC)OCCCC/C=C\CC)CCCCCCCOC(=O)CCC(OCCCC/C=C\CC)OCCCC/C=C\CC)OCCCC/C=C\CC` [Example 7-17], the “Mean Encapsulation Efficiency” value in series [1] was found to be 97.2%. For the same compound, in series [2], the “Mean Diameter” value came to 85.9 nm and the “Mean PDI” value was found to be 10.8%.
With `CC/C=C\CCCCOC(CCC(=O)OCCCCCCCN(CCCCCCCOC(=O)CCC(OCCCC/C=C\CC)OCCCC/C=C\CC)CCCN(CCO)CCCCCCCC(=O)OCCCCCCCCC)OCCCC/C=C\CC` [Example 7-4, ((3-((2-hydroxyethyl)(8-(nonyloxy)-8-oxooctyl)amino)propyl)azanediyl)bis(heptane-7,1-diyl) bis(4,4-bis(((Z)-oct-5-en-1-yl)oxy)butanoate)], the “Mean Diameter” value in series [3] amounted to 95.1 nm; in series [2], 106.9 nm. The “Mean PDI” value in series [3] amounted to 0.10; in series [2], 15.4%. Besides, the “Mean Encapsulation Efficiency” value in series [4] was 66.1%; in series [1], 97.5%.
For the compound `CC/C=C\CCCCOC(CCC(=O)OCCCCCCCN(CCCCCCCOC(=O)CCC(OCCCC/C=C\CC)OCCCC/C=C\CC)CCN(CCO)CCCCCCCCCOC(=O)C(CCCC)CCCCCC)OCCCC/C=C\CC` (stereo not drawn) [Example 7-26, ((2-((9-((2-butyloctanoyl)oxy)nonyl)(2-hydroxyethyl)amino)ethyl)azanediyl)bis(heptane-7,1-diyl) bis(4,4-bis(((Z)-oct-5-en-1-yl)oxy)butanoate)], in series [3], the “Mean Diameter” value is recorded as 82.5 nm and the “Mean PDI” value was 0.12. Besides, the “Mean Encapsulation Efficiency” value in series [4] is 69.2%.
For the compound `CC/C=C\CCCCOC(CCC(=O)OCCCCCCCN(CCCCCCCOC(=O)CCC(OCCCC/C=C\CC)OCCCC/C=C\CC)CCCN(CCO)CCCCCCCCCOC(=O)C(CCCC)CCCCCC)OCCCC/C=C\CC` (stereo not drawn) [Example 7-24, ((3-((9-((2-butyloctanoyl)oxy)nonyl)(2-hydroxyethyl)amino)propyl)azanediyl)bis(heptane-7,1-diyl) bis(4,4-bis(((Z)-oct-5-en-1-yl)oxy)butanoate)], in series [3], the “Mean Diameter” value amounted to 92.7 nm and the “Mean PDI” value is listed as 0.12. The “Mean Encapsulation Efficiency” value in series [4] came out at 72.4%.
For `CC/C=C\CCCCOC(CCC(=O)OCCCCCCCN(CCO)CCCN(CCCCCCOC(=O)C(CCCC)CCCCCC)CCCCCCOC(=O)C(CCCC)CCCCCC)OCCCC/C=C\CC` (stereo not drawn) [Example 7-9], in that order: 89.2 nm, 0.11 and 69.4%.
`CC/C=C\CCCCOC(CCC(=O)OCCCCCCN(CCCCCCOC(=O)CCC(OCCCC/C=C\CC)OCCCC/C=C\CC)CCN(CCO)CCCCCCCC(=O)OCCCCCCCCC)OCCCC/C=C\CC` [Example 7-12, ((2-((2-hydroxyethyl)(8-(nonyloxy)-8-oxooctyl)amino)ethyl)azanediyl)bis(hexane-6,1-diyl) bis(4,4-bis(((Z)-oct-5-en-1-yl)oxy)butanoate)]: the “Mean Diameter” value in series [3] was 74.4 nm; in series [2], 89.3 nm. The entries for the “Mean PDI” value in series [3] and in series [2] were 0.11 and 14.9%, respectively. The entries for the “Mean Encapsulation Efficiency” value in series [4] and in series [1] were 76.5% and 94.7%, respectively.
Turning to `CC/C=C\CCCCOC(CCC(=O)OCCCCCCCN(CCCO)CCN(CCCCCCCCCOC(=O)C(CCCC)CCCCCC)CCCCCCCCCOC(=O)C(CCCC)CCCCCC)OCCCC/C=C\CC` (stereo not drawn) [Example 7-27], in series [3], the “Mean Diameter” value amounted to 81.7 nm and the “Mean PDI” value is 0.11. Moreover, in series [4], the “Mean Encapsulation Efficiency” value was 63.3%.
The matching figures for `CC/C=C\CCCCOC(CCC(=O)OCCCCCCN(CCO)CCCN(CCCCCCOC(=O)C(CCCC)CCCCCC)CCCCCCOC(=O)C(CCCC)CCCCCC)OCCCC/C=C\CC` (stereo not drawn) [Example 7-7]: 83.4 nm, 0.08 and 57.4%.
Turning to `CC/C=C\CCCCOC(CCC(=O)OCCCCCCN(CCO)CCN(CCCCCCCCCOC(=O)C(CCCC)CCCCCC)CCCCCCCCCOC(=O)C(CCCC)CCCCCC)OCCCC/C=C\CC` (stereo not drawn) [Example 7-15], the “Mean Diameter” value was 77.3 nm in series [3] and 77.9 nm in series [2]. Further, the results for the “Mean PDI” value in series [3] and in series [2] were 0.10 and 9.2%, respectively. Further, the figures for the “Mean Encapsulation Efficiency” value in series [4] and in series [1] were 70.1% and 95.6%, respectively.
